Series [1] relates to Human multiple myeloma, KMS34. Description: Relative cell viability, KMS34. It is filed as cell-based. The conditions noted are these: KMS34 cells, 1 μM, relative to untreated cells. The protocol: After that, 10 μL of CCK-8 was added to each well, and the plate was incubated again at 37° C. in a 5% CO2 incubator for 2 hours.
In other words, when the survival rate of untreated cells (DMSO) is set at 100%, the relative cell survival rate in each group treated with the drug at different concentrations is indicated.

Series [2] has as its target T1, PDK1-PKD protein (Protein Kinase Domain fragment) (Homo sapiens, UniProt O15530).
T1 construct: the Protein Kinase Domain (PKD) fragment; inferred from Ni-NTA purification; made in house; host or cells: Sf9 insect cells, baculovirus expression system
Briefly: Microscale Thermophoresis (MST) binding affinity, PDK1-PKD. The conditions noted are these: in the presence of ATP; FIG. 48; read-out: Dissociation constant (Kd), PDK1-PKD. On the procedure:
(§1) Microscale Thermophoresis (MST) analysis was performed to quantitatively measure the binding affinity between PDK1 protein and substrate peptides (PDKTide) or the company-developed low-molecular-weight compound (GO88).
(§2) The target proteins were the full-length (PDK1-FL) protein of human-derived PDK1 and the Protein Kinase Domain (PKD) fragment, which were expressed using a baculovirus expression system in insect cell lines (Sf9).
(§3) The purity of the purified proteins was confirmed by SDS-PAGE and Coomassie Brilliant Blue staining.
(§4) The purified protein was labeled with a fluorescent label using the Monolith NT™ RED-NHS Protein Fluorescent Labeling Kit (NanoTemper).
(§5) Specifically, 20 μM of the protein was dissolved in PBS (pH 7.4) buffer, mixed with the fluorescent reagent, and reacted at room temperature under dark conditions for 30 minutes. The mixture was then buffered with MST analysis buffer (50 mM HEPES, 150 mM NaCl, 1 mM DTT, 0.05% Tween-20, pH 7.5). […]
(§6) The reaction samples were injected into an MST-specific capillary (NanoTemper) and analyzed using a Monolith NT.115 device (NanoTemper) under laser intensity conditions. […]
(§7) The measured data were analyzed using MO.Affinity Analysis software (NanoTemper), and the dissociation constant (Kd) was calculated from the binding curve.
(In general: In MST a laser heats a spot of the sample, and binding alters the fluorescence response.)

The test system of series [3] is human lung fibroblasts MRC-5 cell lines. Briefly: TGF-β induced Collagen I expression in MRC-5 cells (Western blot). It counts as cell-based. The conditions noted are these: TGF-β 5 ng/ml; 0.5 μM and 1 μM; 24 hours; FIG. 44. The protocol: To confirm that the compound of the present invention directly acts on fibrosis-related mechanisms, in vitro experiments were performed using human lung fibroblasts MRC-5 cell lines (Korea Cell Bank).
First, MRC-5 cells were seeded at 5×10^3 cells per well in a 6-well plate and stabilized for 24 hours.
Subsequently, experimental groups were established, including a control group, a group treated with TGF-β (5 ng/ml) alone, and groups treated with TGF-β and the compound GO88 from the present invention at concentrations of 0.5 μM and 1 μM, respectively.
After treating each group with the drugs for 24 hours, the cell medium was removed, and the cells were washed twice with cold PBS. Then, RIPA lysis buffer containing phosphatase inhibitor and protease inhibitor was added to each group to extract proteins.
The extracted proteins were incubated at 4° C. for 30 minutes, then centrifuged at 13,000 rpm for 15 minutes, and the supernatant was collected. The total protein concentration was measured using the BCA protein quantification method.
Subsequently, the proteins were separated by SDS-PAGE, transferred to a PVDF membrane, and Western blot analysis was performed.
The expression levels of Collagen I, a marker related to pulmonary fibrosis, were confirmed, with GAPDH used as an internal control.
Background: In western blotting, separated proteins are transferred to a membrane and probed.

In series [4] the target is T2, full-length PDK1 (PDK1-FL) (Homo sapiens, UniProt O15530).
T2 construct: the full-length (PDK1-FL) protein of human-derived PDK1; inferred from Ni-NTA purification; made in house; host or cells: Sf9 insect cells, baculovirus expression system
Description: Microscale Thermophoresis (MST) binding affinity, full-length PDK1. On the procedure: as §1, §2, §3, §4, §5, §6, §7

For series [5], the system named is C57BL/6 mice with skin grafts. Briefly: Skin graft animal model (BALB/c donor, C57BL/6 recipient). It is filed as in vivo, mouse. The conditions noted are these: 0.15 mg/kg twice daily. On the procedure:
To evaluate the immune-suppressive effects of the compounds according to the present invention, a skin graft animal model was established, and the efficacy of the compounds was analyzed in the model.
First, female BALB/c mice aged 7 weeks and weighing approximately 20 g were used as donor animals, and female C57BL/6 mice of the same age and weight were used as recipient animals. All experimental animals were supplied by HanabioTech Co., Ltd.
Prior to the experiment, the animals were acclimatized in SPF-certified facilities for one week and then used in the experiment. The housing conditions were maintained at a temperature of 22±2° C., relative humidity of 55+10%, and a 12-hour light-dark cycle.
To establish the skin graft model, a anesthetic solution consisting of ketamine, […], and PBS in a volume ratio of 1:1:3 was administered intraperitoneally to C57BL/6 mice to induce anesthesia.
The hair on the dorsal side of the anesthetized mice was removed and disinfected, followed by excision of the full-thickness skin using an 8 mm punch. Subsequently, skin of the same size was harvested from donor mice (BALB/c) and transplanted. […]
Subsequently, the proportions of CD3- and B220-positive cells were analyzed using a flow cytometer.

As a reminder, the Kd is the constant that tells how readily two partners part at equilibrium.

T2 sequence (O15530 whole entry): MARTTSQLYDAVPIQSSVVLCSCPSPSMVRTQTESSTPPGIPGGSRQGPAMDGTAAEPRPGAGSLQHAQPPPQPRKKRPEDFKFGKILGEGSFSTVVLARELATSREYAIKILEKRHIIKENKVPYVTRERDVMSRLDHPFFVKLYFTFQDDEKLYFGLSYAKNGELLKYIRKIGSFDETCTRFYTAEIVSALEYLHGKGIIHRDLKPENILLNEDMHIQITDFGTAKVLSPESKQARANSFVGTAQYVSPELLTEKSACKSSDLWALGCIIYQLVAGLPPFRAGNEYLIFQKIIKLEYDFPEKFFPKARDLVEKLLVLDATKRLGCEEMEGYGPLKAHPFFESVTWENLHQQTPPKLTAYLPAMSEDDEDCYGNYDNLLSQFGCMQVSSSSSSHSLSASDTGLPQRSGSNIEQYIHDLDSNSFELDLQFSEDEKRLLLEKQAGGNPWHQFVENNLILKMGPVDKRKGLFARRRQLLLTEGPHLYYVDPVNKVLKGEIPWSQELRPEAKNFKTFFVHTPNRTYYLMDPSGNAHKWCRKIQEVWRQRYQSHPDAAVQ
T1 sequence (O15530 82-342 limits assumed): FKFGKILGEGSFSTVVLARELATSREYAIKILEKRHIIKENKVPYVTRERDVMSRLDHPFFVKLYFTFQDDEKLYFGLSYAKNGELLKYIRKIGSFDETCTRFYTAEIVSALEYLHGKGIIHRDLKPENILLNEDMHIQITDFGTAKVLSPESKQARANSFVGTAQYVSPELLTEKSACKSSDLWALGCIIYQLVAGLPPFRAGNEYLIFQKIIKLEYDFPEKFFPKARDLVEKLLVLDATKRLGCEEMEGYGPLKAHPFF

On to `CC1(C)CN(CCCCCCCCCCCCC(=O)Nc2nc(N)c3[nH]cnc3n2)CCO1` [Compound 11, 12-[4-(2,2-dimethylmorpholin-4-yl)]dodecyl-N-(6-aminopurine-2-yl) carboxamide], for which, in series [1], the “Relative cell viability (%)” value worked out at 26.19%.

`Nc1ncccc1C(=O)NCCCCCCCCCCCCN1CCNCC1` [Compound 14, 2-Amino-N-(12-(piperazin-1-yl)dodecyl)nicotinamide]: the Kd is approximately 371 nM in series [2] and approximately 58.4 nM in series [4] (FIG. 48, read-out: Dissociation constant (Kd), full-length PDK1). Further, the “Protein expression of Collagen I” value in series [3] was “inhibited in a concentration-dependent manner”. Further, the “Binding affinity of full-length PDK1 compared to the PKD fragment” value in series [4] (ratio of Kd values) is reported as “approximately six times stronger binding affinity”. Besides, the “Animals with graft pinkening and good blood flow” value in series [5] (day 10 post-transplantation) is given as “three out of five”; in series [5] (day 15 post-transplantation) it was “one out of five”.

These data come from patent US20260183274A1, “PDK1 REGULATORY COMPOUND AND COMPOSITION CONTAINING THE SAME” (PROVIBIO CO., LTD., priority 2024, published 2026).
